How the values were obtained:
[1] = system: Imiquimod (IMQ)-induced mouse model of psoriasis
Method: (a) Experimental Scheme of three-day IMQ treatment with seven-day systemic therapy. (b) (upper panel) change in ear thickness between control (PBS; crosses), IMQ-treated (squares), and systemic MTX therapy receiving (1 mg/kg (upward triangles), 2 mg/kg (downward triangles), 5 mg/kg (diamonds)) animals. (Lower panels) statistical analysis of ear thickness differences between groups between days 4-7.
(a) (upper panel), change in ear thickness between control (PBS, crosses), IMQ-treated (squares), and systemic therapy receiving in addition to IMQ, 2 mg/kg MTX (upward triangles), GNPs containing 5.5 mg/kg Au (downward triangles), and MTX-GNP containing 2 mg/kg MTX and 5.5 mg/kg Au (diamonds). (Lower panels) statistical analysis of ear thickness differences between groups between days 4-7. […] Data is pooled from 2-3 independent experiments, 2 to 5 mice per condition and represented as mean±standard deviation.
Clinical efficacy and in vivo tolerability were assessed against relevant controls for both systemic (subcutaneous injection) and topical administration.
First, we evaluated tolerance of mice to MTX with a dose escalation setup (FIG. 2b).

[2] = Formulation into Carbopol 980 gel: precipitation / homogeneity; type: physicochemical; conditions: for precipitation / homogeneity in 2% Carbopol 980 gel: Carbopol 980 adjusted to pH 7.4 prior to addition
Method: Gels were prepared by dispersing 1-3% w/v of Carbopol polymer (w/v) into purified water with constant mixing and thus allowed to hydrate for 5 hours. Care was taken to avoid air entrapment by agitating the solution slowly on a rocker during preparation of the gel. After 5 hours, the pH of the gel was adjusted to pH 7.4 using triethylamine (Sigma-Aldrich, Lot #STBF616V) to neutralise the pH and turn the solution into a gel (triethanolamine is contemplated herein as a suitable alternative to triethylamine).
For production of methotrexate-GNP hydrogel, 2% w/v Carbopol®980 was initially dispersed for 5 hours with constant mixing. […] Plain methotrexate drug gel was prepared by dissolving MTX-PEG3-NH2 in water and adjusting the pH to pH 4.5. The MTX-PEG3-NH2 solution was added to the previously made 2% Carbopol®980 solution.
The method for formulating gold nanoparticles into Carbopol®980 gels was optimised by testing the effects of pH and speed of addition of nanoparticles using control [α-Gal][PEG8COOH]@Au GNPs. […] The gels were all stored at 4° C.
For production of methotrexate-GNP hydrogel, 2% w/v Carbopol®980 was dispersed for 5 hours with constant mixing. The pH of the Carbopol®980 solution was adjusted to pH 7.4 to produce a clear gel. […] Plain methotrexate drug gel was prepared by adding MTX-PEG3-NH2 dissolved in water to the pH 7.4 adjusted Carbopol®980 gel (2%).

Structure (SMILES) | animal wellbeing ([1]; mouse, in vivo) | tolerability / systemic toxicity (liver enzyme measurements, daily weight monitoring) ([1]; mouse, in vivo, sc, 2 mg/kg) | IMQ-induced inflammation (ear thickness) ([1]; systemic (subcutaneous), 2 mg/kg MTX daily) | ear thickness / inflammation control ([1]; systemic MTX 5 mg/kg daily) | precipitation / homogeneity in 2% Carbopol 980 gel [2] | precipitation / homogeneity in 2% Carbopol 980 gel ([2]; listed as modified methotrexate) | precipitation on addition to 2% Carbopol 980 solution ([2]; acidic addition (GNPs pH 2.6; MTX-PEG3-NH2 pH 4.5), Carbopol not neutralised)
CN(Cc1cnc2nc(N)nc(N)c2n1)c1ccc(C(=O)N[C@@H](CCC(=O)O)C(=O)O)cc1 [MTX, Methotrexate] | irrevocably impaired animal wellbeing | tolerable | no significant inflammation control | clinically effective | – | – | –
CN(Cc1cnc2nc(N)nc(N)c2n1)c1ccc(C(=O)NC(CCC(=O)NCCCOCCOCCOCCCN)C(=O)O)cc1 (stereo not shown) [MTX-PEG3-NH2, 4-[(3-{2-[2-(3-aminopropoxy)ethoxy]ethoxy}propyl)carbamoyl]-2-[(4-{[(2,4-diaminopteridin-6-yl)methyl](methyl)amino}phenyl)formamido]butanoic acid] | – | – | – | – | no precipitation | without precipitation | small level of yellow precipitation

From patent US20220047718A1, “Nanoparticle-Based Therapy of Inflammatory Disorders” (priority 2018, published 2022)
